Laboratory results from patent publication US20260199500A1, “Camptothecin Derivative, Conjugate Thereof, Preparation Method Therefor and Medical Use Thereof” (priority 2023, published 2026).

Columns and labels:
[1] = tested on: MDA-MB-468 breast cancer cells; test: Inhibitory activity of compounds on MDA-MB-468 breast cancer cells (CellTiter-Glo); assay type: cell-based; settings: for IC50 on 468 cells, ratio to DXD: IC50 of PY-X (DXD) set to 1, values are ratios of measured IC50 to DXD
Experimental: (§1) On the day of the experiment, the cells were digested with 0.25% trypsin (Gibco, 25200-072), filtered through a 40 μm sieve, diluted with the corresponding medium to a cell density of 1×10^4 cells/mL, and inoculated into a 96-well white cell culture plate (Beyotime, FCP968), with 100 μL of cells added per well. The culture plate was placed in a 37° C. incubator (Thermo 311) containing 5% C02 and incubated for 24 hours. On the second day, the samples to be tested were prepared as a stock solution at a final concentration of 1M in DMSO (Sigma, D1650), then diluted with the corresponding medium to a final concentration of 200 nM, and subjected to four-fold serial dilutions, resulting in a total of 9 concentrations. 100 μL of the diluted sample was added to each well of the 96-well plate. The plate was placed in a 37° C. incubator containing 5% CO2 and incubated for 144 hours. The cell culture plate was then removed, and 100 μL of the cell viability assay reagent (CellTiter-Glo® Luminescent Cell Viability Assay, Promega, G7571) was added to each well. The reaction was carried out in the dark at room temperature for 5 minutes. Luminescence values were read using a microplate reader (TECAN SPARK), and data were processed using Graphpad Prism 7 software.
(§2) PY—Y is referenced in the document (WO2022170971A1); and PY-A is referenced in the document (WO2021148501A1).

[2] = Log D of small molecules (1-octanol / phosphate buffer pH 2.5 and pH 7.4, LC-MS/MS); assay type: physicochemical
Experimental: (1) Preparation of 100 mM phosphate buffer (PB) solution at pH 2.5 and pH 7.4 respectively: • a. Preparation of a solution of 100 mM H3PO4 in water: 14.7 M H3PO4 was diluted with water to a concentration of 100 mM H3PO4, and the pH was measured to be approximately 1.8. • b. Preparation of 100 mM NaH2PO4: 5.999 g of NaH2PO4 was dissolved in 500 mL of water and the pH was measured to be approximately 4.5. • c. Preparation of 100 mM Na2HPO4: 7.098 g of Na2HPO4 was dissolved in water to a volume of 500 mL and the pH was measured to be approximately 9.4. • d. Preparation of 100 mM PB (pH 2.5): 15 mL of 100 mM H3PO4 was added to a 50 mL tube, and then pH was adjusted to 2.5±0.05 with 100 mM NaH2PO4. • d. Preparation of 100 mM PB (pH 7.4): 15 mL of 100 mM Na2HPO4 was added to a 50 mL tube, and then pH was adjusted to 7.4±0.05 with 100 mM NaH2PO4.
(2) Saturation of PBs (pH 2.5 and pH 7.4) with 1-octanol: 10 mL of 1-octanol was added to 100 mL of 100 mM PBs (pH 2.5 and pH 7.4), and the mixture was shaken vigorously, and then allowed to stand overnight at room temperature for later use.
(3) Saturation of 1-octanol with PBs (pH 2.5 and pH 7.4): 10 mL of 100 mM PBs (pH 2.5 and pH 7.4) was added to 100 mL of 1-octanol, and the mixture was shaken vigorously, and then allowed to stand overnight at room temperature for later use.
2.1) 2 μL of 10 mM DMSO stock solution of the test compound were dispensed into test tubes, in duplicate.
2.2) 149 μL of PB saturated with 1-octanol (pH 2.5 and 7.4) were added to the tubes.
2.3) 149 μL of PB (pH 2.5 and 7.4) saturated with 1-octanol were added to the corresponding tubes.
2.4) Each tube was vigorously mixed for 2 minutes, then shaken at 800 rpm for 1 hour at room temperature.
2.5) The tubes were centrifuged at 4000 rpm for 5 minutes at room temperature.
2.6) Appropriate volumes of the buffer phase and 1-octanol phase samples were aliquoted.
2.7) These samples were diluted and analyzed using LC-MS/MS without running a calibration curve.
2.8) Data analysis: The log D value of each compound was calculated using the following formula: f

[3] = tested on: N87 gastric cancer cells; test: Inhibitory activity of compounds on N87 gastric cancer cells (CellTiter-Glo, 144 h); assay type: cell-based; settings: for IC50 on N87 cells, ratio to DXD: IC50 of PY-X (DXD) set to 1, values are ratios of measured IC50 to DXD, 144 h
Experimental: as §1, §2

[4] = samples retested together, ratio of measured IC50 to DXD

| Structure (SMILES) | IC50 on 468 cells, ratio to DXD (retest) [1, 4] | logD ([2]; pH 2.5) | logD ([2]; pH 7.4) | IC50 on N87 cells, ratio to DXD (retest) [3, 4] | IC50 on 468 cells, ratio to DXD [1] | IC50 on N87 cells, ratio to DXD [3] |
| --- | --- | --- | --- | --- | --- | --- |
| CC[C@@]1(O)C(=O)OCc2c1cc1n(c2=O)Cc2c-1nc1cc(F)c(C)c3c1c2[C@@H](NC(=O)OCCCO)CC3 [PY-4Car3C, 3-hydroxypropyl((1S,9S)-9-ethyl-5-fluoro-9-hydroxy-4-methyl-10,13-dioxo-2,3,9,10,13,15-hexahydro-1H,12H-benzo[d]pyrano[3′,4′:6,7]indolizino[1,2-b]quinolin-1-yl)carbamate] | 0.5740 | 2.2 | 2.29 | 0.3593 | – | – |
| CC[C@@]1(O)C(=O)OCc2c1cc1n(c2=O)Cc2c-1nc1cc(F)c(OC)c3c1c2CCC3 [PY-11, (S)-9-ethyl-5-fluoro-9-hydroxy-4-methoxy-1,2,3,9,12,15-hexahydro-10H,13H-benzo[de]pyrano[3′,4:6,7]indolizino[1,2-b]quinolin-10,13-dione] | – | – | – | – | 0.9642 | 0.0606 |
| CC[C@@]1(O)C(=O)OCc2c1cc1n(c2=O)Cc2c-1nc1cc(F)c(OC)c3c1c2[C@@H](N)CC3 [PY-12A, (1S,9S)-1-amino-9-ethyl-5-fluoro-9-hydroxy-4-methoxy-1,2,3,9,12,15-hexahydro-10H,13H-benzo[de]pyrano[3′,4:6,7]indolizino[1,2-b]quinolin-10,13-dione] | – | – | – | – | 3.3035 | 1.6441 |
| CC[C@@]1(O)C(=O)OCc2c1cc1n(c2=O)Cc2c-1nc1cc(F)c(OC)c3c1c2[C@H](N)CC3 [PY-12B, (1R,9S)-1-amino-9-ethyl-5-fluoro-9-hydroxy-4-methoxy-1,2,3,9,12,15-hexahydro-10H,13H-benzo[de]pyrano[3′,4:6,7]indolizino[1,2-b]quinolin-10,13-dione] | – | – | – | – | 8.4257 | 5.3044 |
| CC[C@@]1(O)C(=O)OCc2c1cc1n(c2=O)Cc2c-1nc1cc(F)c(OCCN)c3c1c2CCC3 [PY-17, (S)-4-(2-aminoethoxy)-9-ethyl-5-fluoro-9-hydroxy-1,2,3,9,12,15-hexahydro-10H,13H-benzo[d]pyrano[3′,4′:6,7]indolizino[1,2-b]quinolin-10,13-dione] | – | – | – | – | 8.0396 | 3.7859 |
| CC[C@@]1(O)C(=O)OCc2c1cc1n(c2=O)Cc2c-1nc1cc(F)c(CCN)c3c1c2CCC3 [PY-20] | – | – | – | – | 1.2806 | 1.0070 |
| CC[C@@]1(O)C(=O)OCc2c1cc1n(c2=O)Cc2c-1nc1cc(F)c(CCCCN)c3c1c2CCC3 [PY-24] | – | – | – | – | 2.2057 | 1.5288 |
